Source: US10266497B2 (ABIDE THERAPEUTICS, INC., priority 2017, dated 2019)

What was measured:
MAGL [1] = target: T1, MAGL (Mus musculus, UniProt O35678); test: In vitro competitive activity-based protein profiling, MAGL, mouse; conditions: read-out: MAGL % inh. 1 μM (mouse)
T1 sequence (O35678 1-303): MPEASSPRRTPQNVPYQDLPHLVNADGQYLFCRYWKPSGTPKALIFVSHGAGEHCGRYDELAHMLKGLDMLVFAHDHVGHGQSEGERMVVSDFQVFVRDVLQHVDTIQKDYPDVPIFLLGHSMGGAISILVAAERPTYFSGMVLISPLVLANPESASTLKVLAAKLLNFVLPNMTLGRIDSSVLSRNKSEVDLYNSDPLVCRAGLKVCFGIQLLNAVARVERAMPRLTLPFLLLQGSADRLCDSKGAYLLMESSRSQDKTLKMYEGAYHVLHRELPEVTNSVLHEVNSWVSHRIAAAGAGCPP

FAAH [2] = target: T2, FAAH (Homo sapiens, UniProt O00519); test: In vitro competitive activity-based protein profiling, FAAH, human; conditions: for inhibition at 1 µM: read-out: FAAH % inh. 1 μM (human)
T2 sequence (O00519 1-579): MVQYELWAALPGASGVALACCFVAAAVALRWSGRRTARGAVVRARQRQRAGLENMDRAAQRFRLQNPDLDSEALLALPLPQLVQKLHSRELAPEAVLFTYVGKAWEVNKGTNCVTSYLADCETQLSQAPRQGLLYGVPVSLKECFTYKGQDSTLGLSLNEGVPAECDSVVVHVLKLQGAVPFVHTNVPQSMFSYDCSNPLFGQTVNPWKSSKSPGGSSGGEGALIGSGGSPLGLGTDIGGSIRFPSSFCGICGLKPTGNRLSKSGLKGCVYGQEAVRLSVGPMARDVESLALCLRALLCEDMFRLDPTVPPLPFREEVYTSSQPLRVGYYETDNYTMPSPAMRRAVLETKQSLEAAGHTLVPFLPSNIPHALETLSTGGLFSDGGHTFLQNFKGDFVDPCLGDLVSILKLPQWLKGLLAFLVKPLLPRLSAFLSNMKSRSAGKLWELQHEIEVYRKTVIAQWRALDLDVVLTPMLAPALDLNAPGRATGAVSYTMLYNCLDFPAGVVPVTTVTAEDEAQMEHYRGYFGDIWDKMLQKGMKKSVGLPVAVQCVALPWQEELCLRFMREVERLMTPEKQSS

MAGL [3] = target: T3, MAGL (Homo sapiens, UniProt Q99685); test: In vitro competitive activity-based protein profiling, MAGL, human; conditions: for inhibition at 1 µM: read-out: MAGL % inh. 1 μM (human); for inhibition at 10 µM: read-out: MAGL % inh. (human) at 10 uM
T3 sequence (Q99685 1-303): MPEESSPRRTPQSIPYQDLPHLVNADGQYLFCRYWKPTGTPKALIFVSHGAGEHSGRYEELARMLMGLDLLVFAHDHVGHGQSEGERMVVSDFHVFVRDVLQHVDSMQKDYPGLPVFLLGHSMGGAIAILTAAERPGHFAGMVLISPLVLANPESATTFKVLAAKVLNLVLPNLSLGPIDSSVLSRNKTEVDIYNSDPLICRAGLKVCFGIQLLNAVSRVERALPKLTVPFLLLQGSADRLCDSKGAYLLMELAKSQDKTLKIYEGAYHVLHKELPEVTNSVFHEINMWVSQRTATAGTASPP
Protocol: Biological Evaluation In Vitro Competitive Activity-Based Protein Profiling.
Proteomes (mouse brain membrane fraction for mouse assays; human prefrontal cortex membrane fractions for human assays) (50 mL, 1.0 mg/mL total protein concentration) were preincubated with varying concentrations of inhibitors at 37° C. After 30 min, FP-Rh (1.0 mL, 50 mM in DMSO) was added and the mixture was incubated for another 30 min at 37° C. Reactions were quenched with SDS loading buffer (15 μL—4λ) and run on SDS-PAGE.

FAAH [4] = target: T4, FAAH (Mus musculus, UniProt O08914); test: In vitro competitive activity-based protein profiling, FAAH, mouse; conditions: read-out: FAAH % inh. 1 μM (mouse)
T4 sequence (O08914 1-579): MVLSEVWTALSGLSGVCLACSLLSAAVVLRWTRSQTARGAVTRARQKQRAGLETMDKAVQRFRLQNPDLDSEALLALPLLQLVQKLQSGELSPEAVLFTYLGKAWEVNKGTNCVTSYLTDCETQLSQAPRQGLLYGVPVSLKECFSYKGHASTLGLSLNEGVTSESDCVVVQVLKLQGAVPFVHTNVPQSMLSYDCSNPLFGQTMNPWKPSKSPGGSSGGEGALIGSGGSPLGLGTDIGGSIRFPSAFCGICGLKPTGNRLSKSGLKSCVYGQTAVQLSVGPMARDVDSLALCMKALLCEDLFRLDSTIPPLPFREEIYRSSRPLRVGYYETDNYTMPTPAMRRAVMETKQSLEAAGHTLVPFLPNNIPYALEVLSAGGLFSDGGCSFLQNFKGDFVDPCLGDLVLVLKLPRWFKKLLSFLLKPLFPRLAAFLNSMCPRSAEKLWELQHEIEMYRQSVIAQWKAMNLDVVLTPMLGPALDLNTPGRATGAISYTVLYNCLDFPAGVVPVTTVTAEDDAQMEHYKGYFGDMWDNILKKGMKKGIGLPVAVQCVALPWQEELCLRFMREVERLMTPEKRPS

SMILES: Cc1cn(C(=O)N2CCN(Cc3cccc(Oc4ccc(Cl)cc4)c3)CC2)nc1C(=O)O [Example 129, 1-(4-(3-(4-chlorophenoxy)benzyl)piperazine-1-carbonyl)-4-methyl-1H-pyrazole-3-carboxylic acid]
- inhibition at 1 µM (MAGL [1]): > 75%
- IC50 (FAAH [2]): 100 to 1000 nM
- inhibition at 1 µM (FAAH [2]): > 75%
- inhibition at 1 µM (MAGL [3]): > 75%
- inhibition at 1 µM (FAAH [4]): > 75%

SMILES: Cc1cn(C(=O)N2CCC3(CC2)CN(Cc2cc(Cl)ccc2C(F)(F)F)C3)nc1C(=O)O [Example 131, 1-(2-(5-chloro-2-(trifluoromethyl)benzyl)-2,7-diazaspiro[3.5]non-ane-7-carbonyl)-4-methyl-1H-pyrazole-3-carboxylic acid]
- inhibition at 1 µM (MAGL [1]): > 75%
- IC50 (FAAH [2]): 1000 to 10000 nM
- inhibition at 1 µM (FAAH [2]): 0 to 25%
- IC50 (MAGL [3]): 100 to 1000 nM
- inhibition at 1 µM (MAGL [3]): > 75%
- inhibition at 1 µM (FAAH [4]): 0 to 25%

SMILES: O=C(O)c1nn(C(=O)N2CCC3(CC2)CN(Cc2cc(Cl)ccc2C(F)(F)F)C3)cc1Cl [Example 134, 4-chloro-1-(2-(5-chloro-2-(trifluoromethyl)benzyl)-2,7-diazaspiro[3.5]non-ane-7-carbonyl)-1H-pyrazole-3-carboxylic acid]
- inhibition at 1 µM (MAGL [1]): > 75%
- IC50 (FAAH [2]): 100 to 1000 nM
- inhibition at 1 µM (FAAH [2]): > 75%
- inhibition at 1 µM (MAGL [3]): > 75%
- inhibition at 1 µM (FAAH [4]): 50 to 75%

SMILES: O=C(O)c1nn(C(=O)N2CC3CN(Cc4cc(Cl)ccc4Cl)CC3C2)cc1Cl (stereo not shown) [Example 136, 4-chloro-1-(5-(2,5-dichlorobenzyl)octa-hydropyrrolo[3,4-c]pyrrole-2-carbonyl)-1H-pyrazole-3-carboxylic acid]
- inhibition at 1 µM (MAGL [1]): > 75%
- IC50 (FAAH [2]): 100 to 1000 nM
- inhibition at 1 µM (FAAH [2]): > 75%
- inhibition at 1 µM (MAGL [3]): > 75%
- inhibition at 1 µM (FAAH [4]): > 75%

SMILES: O=C(O)c1nn(C(=O)N2CC3CN(Cc4cccc(Oc5ccc(Cl)cc5)c4)CC3C2)cc1Cl (stereo not shown) [Example 137, 4-chloro-1-(5-(3-(4-chlorophenoxy)benzyl)octahydro-pyrrolo[3,4-c]pyrrole-2-carbonyl)-1H-pyrazole-3-carboxylic acid]
- inhibition at 1 µM (MAGL [1]): > 75%
- IC50 (FAAH [2]): 100 to 1000 nM
- inhibition at 1 µM (FAAH [2]): > 75%
- IC50 (MAGL [3]): 100 to 1000 nM
- inhibition at 1 µM (MAGL [3]): > 75%
- inhibition at 1 µM (FAAH [4]): > 75%

SMILES: O=C(O)c1nn(C(=O)N2CCC3(CCN(Cc4ccc(N5CCCC5)cc4C(F)(F)F)C3)CC2)cc1Cl [Example 138, 4-chloro-1-(2-(4-(pyrrolidin-1-yl)-2-(trifluoromethyl)benzyl)-2,8-diazaspiro[4.5]decane-8-carbonyl)-1H-pyrazole-3-carboxylic acid]
- inhibition at 1 µM (MAGL [1]): > 75%
- IC50 (FAAH [2]): 100 to 1000 nM
- inhibition at 1 µM (FAAH [2]): 0 to 25%
- inhibition at 1 µM (MAGL [3]): > 75%
- inhibition at 1 µM (FAAH [4]): 50 to 75%

SMILES: O=C(O)c1nn(C(=O)N2CC3CN(Cc4ccc(-c5nnn[nH]5)cc4C(F)(F)F)CC3C2)cc1Cl (stereo not shown) [Example 141, 1-(5-(4-(1H-tetrazol-5-yl)-2-(trifluoromethyl)benzyl)octahydro-pyrrolo[3,4-c]pyrrole-2-carbonyl)-4-chloro-1H-pyrazole-3-carboxylic acid]
- inhibition at 1 µM (MAGL [1]): 0 to 25%
- inhibition at 50 µM (FAAH [2]; read-out: FAAH % inh. (human) at 50 uM): > 75%
- inhibition at 10 µM (MAGL [3]): > 75%
- inhibition at 1 µM (FAAH [4]): 0 to 25%

SMILES: O=C(O)c1nn(C(=O)N2CCN(Cc3ccc(-c4nnn[nH]4)cc3C(F)(F)F)CC2)cc1Cl [Example 142, 1-(4-(4-(1H-tetrazol-5-yl)-2-(trifluoromethyl)benzyl)piperazine-1-carbonyl)-4-chloro-1H-pyrazole-3-carboxylic acid]
- inhibition at 1 µM (MAGL [1]): 0 to 25%
- inhibition at 1 µM (FAAH [2]): 0 to 25%
- inhibition at 10 µM (MAGL [3]): > 75%
- inhibition at 1 µM (FAAH [4]): 0 to 25%

SMILES: O=C(O)c1nn(C(=O)N2CC3CC(OCc4ccccc4Cl)CC3C2)cc1C(F)(F)F (stereo not shown) [Example 143, 1-(5-((2-chlorobenzyl)oxy)octahydrocyclopenta [c]pyrrole-2-carbonyl)-4-(trifluoromethyl)-1H-pyrazole-3-carboxylic acid]
- inhibition at 1 µM (MAGL [1]): 0 to 25%
- IC50 (FAAH [2]): 100 to 1000 nM
- inhibition at 1 µM (FAAH [2]): > 75%
- IC50 (MAGL [3]): 1000 to 10000 nM
- inhibition at 1 µM (MAGL [3]): 0 to 25%
- inhibition at 1 µM (FAAH [4]): > 75%

SMILES: C#Cc1ccc(CN2CCN(C(=O)n3ccc(C(N)=O)n3)CC2)cc1 [Example 144, 1-(4-(4-ethynylbenzyl)piper-azine-1-carbonyl)-1H-pyrazole-3-carboxamide]
- inhibition at 1 µM (MAGL [1]): > 75%
- inhibition at 1 µM (FAAH [2]): > 75%
- inhibition at 1 µM (MAGL [3]): > 75%
- inhibition at 1 µM (FAAH [4]): > 75%

SMILES: O=C(O)c1nn(C(=O)N2CCN(Cc3ccc(-c4cnc5ccccn45)cc3C(F)(F)F)CC2)cc1Cl [Example 145, 4-chloro-1-(4-(4-(imidazo[1,2-a]pyridin-3-yl)-2-(trifluoromethyl)benzyl)piperazine-1-carbonyl)-1H-pyrazole-3-carboxylic acid]
- inhibition at 1 µM (MAGL [1]): > 75%
- inhibition at 1 µM (FAAH [2]): 50 to 75%
- inhibition at 1 µM (MAGL [3]): > 75%
- inhibition at 1 µM (FAAH [4]): > 75%

SMILES: O=C(O)c1nn(C(=O)N2CC3CN(Cc4cc(Cl)ccc4Cl)CC3C2)cc1C(F)(F)F (stereo not shown) [Example 146, 1-(5-(2,5-dichlorobenzyl)octa-hydropyrrolo[3,4-c]pyrrole-2-carbonyl)-4-(trifluoromethyl)-1H-pyrazole-3-carboxylic acid]
- inhibition at 1 µM (MAGL [1]): 50 to 75%
- inhibition at 1 µM (FAAH [2]): > 75%
- inhibition at 1 µM (MAGL [3]): > 75%
- inhibition at 1 µM (FAAH [4]): > 75%

SMILES: O=C(O)c1nn(C(=O)N2CC3CN(Cc4cccc(Oc5ccc(Cl)cc5)c4)CC3C2)cc1C(F)(F)F (stereo not shown) [Example 147, 1-(5-(3-(4-chlorophenoxy)benzyl)octahydro-pyrrolo[3,4-c]pyrrole-2-carbonyl)-4-(trifluoromethyl)-1H-pyrazole-3-carboxylic acid]
- inhibition at 1 µM (MAGL [1]): 0 to 25%
- inhibition at 1 µM (FAAH [2]): > 75%
- inhibition at 1 µM (MAGL [3]): > 75%
- inhibition at 1 µM (FAAH [4]): > 75%

SMILES: O=C(O)c1nn(C(=O)N2CCC3(CCCN3Cc3cc4ccc(C(F)(F)F)cc4s3)CC2)cc1C(F)(F)F [Example 149, 4-(trifluoromethyl)-1-(1-((6-(trifluoromethyl)benzo[b]thiophen-2-yl)methyl)-1,8-diazaspiro[4.5]decane-8-carbonyl)-1H-pyrazole-3-carboxylic acid]
- inhibition at 1 µM (MAGL [1]): > 75%
- IC50 (FAAH [2]): 1000 to 10000 nM
- inhibition at 1 µM (FAAH [2]): 25 to 50%
- IC50 (MAGL [3]): 100 to 1000 nM
- inhibition at 1 µM (MAGL [3]): > 75%
- inhibition at 1 µM (FAAH [4]): > 75%

SMILES: O=C(O)c1nn(C(=O)N2CCC3(CCN(Cc4ccc(N5CCCC5)cc4C(F)(F)F)C3)CC2)cc1C(F)(F)F [Example 150, 1-(2-(4-(pyrrolidin-1-yl)-2-(trifluoromethyl)benzyl)-2,8-diazaspiro[4.5]decane-8-carbonyl)-4-(trifluoromethyl)-1H-pyrazole-3-carboxylic acid]
- inhibition at 1 µM (MAGL [1]): 25 to 50%
- inhibition at 1 µM (FAAH [2]): 50 to 75%
- inhibition at 1 µM (MAGL [3]): 25 to 50%
- inhibition at 1 µM (FAAH [4]): > 75%

SMILES: O=C(O)c1nn(C(=O)N2CC3CN(Cc4cc(N5CCCC5)cc(C(F)(F)F)c4)CC3C2)cc1Cl (stereo not shown) [Example 151, 4-chloro-1-(5-(3-(pyrrolidin-1-yl)-5-(trifluoromethyl)benzyl)octahydro-pyrrolo[3,4-c]pyrrole-2-carbonyl)-1H-pyrazole-3-carboxylic acid]
- inhibition at 1 µM (MAGL [1]): > 75%
- inhibition at 1 µM (FAAH [2]): 25 to 50%
- inhibition at 1 µM (MAGL [3]): > 75%
- inhibition at 1 µM (FAAH [4]): 25 to 50%
